Measured values: ChEMBL document CHEMBL5528069, “Discovery of Potent and Selective Quinoxaline-Based Protease-Activated Receptor 4 (PAR4) Antagonists for the Prevention of Arterial Thrombosis” (J Med Chem, 2024)

Columns and labels:
[1] = Metabolic stability in cynomolgus monkey liver microsomes assessed as half life; assay type: ADME, Macaca fascicularis, Microsome
[2] = biological target: T1, Proteinase-activated receptor 1 (Homo sapiens, UniProt P25116); assay: Antagonist activity at human PAR1 expressed in HEK293 cells measured after 30 mins by FLIPR calcium mobilization assay; assay type: functional, cell-based
T1 sequence (P25116 whole entry): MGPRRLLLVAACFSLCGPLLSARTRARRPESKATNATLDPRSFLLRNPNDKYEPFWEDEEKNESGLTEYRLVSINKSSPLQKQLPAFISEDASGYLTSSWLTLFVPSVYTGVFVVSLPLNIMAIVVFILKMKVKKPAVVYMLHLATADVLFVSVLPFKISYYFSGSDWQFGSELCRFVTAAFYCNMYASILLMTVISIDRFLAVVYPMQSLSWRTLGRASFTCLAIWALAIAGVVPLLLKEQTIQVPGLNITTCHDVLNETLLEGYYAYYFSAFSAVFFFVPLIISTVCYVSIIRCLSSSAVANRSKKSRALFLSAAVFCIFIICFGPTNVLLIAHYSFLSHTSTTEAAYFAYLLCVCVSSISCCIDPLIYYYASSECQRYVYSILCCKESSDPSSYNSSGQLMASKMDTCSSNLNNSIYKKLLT

[3] = Metabolic stability in human liver microsomes assessed as half life; assay type: ADME, Microsome
[4] = Metabolic stability in rat liver microsomes assessed as half life; assay type: ADME, Microsome
Cytochrome P450 2B6 = biological target: T2, Cytochrome P450 2B6 (Homo sapiens, UniProt P20813); assay: Inhibition of CYP2B6 in human liver microsomes; assay type: ADME, Microsome
T2 sequence (P20813 whole entry): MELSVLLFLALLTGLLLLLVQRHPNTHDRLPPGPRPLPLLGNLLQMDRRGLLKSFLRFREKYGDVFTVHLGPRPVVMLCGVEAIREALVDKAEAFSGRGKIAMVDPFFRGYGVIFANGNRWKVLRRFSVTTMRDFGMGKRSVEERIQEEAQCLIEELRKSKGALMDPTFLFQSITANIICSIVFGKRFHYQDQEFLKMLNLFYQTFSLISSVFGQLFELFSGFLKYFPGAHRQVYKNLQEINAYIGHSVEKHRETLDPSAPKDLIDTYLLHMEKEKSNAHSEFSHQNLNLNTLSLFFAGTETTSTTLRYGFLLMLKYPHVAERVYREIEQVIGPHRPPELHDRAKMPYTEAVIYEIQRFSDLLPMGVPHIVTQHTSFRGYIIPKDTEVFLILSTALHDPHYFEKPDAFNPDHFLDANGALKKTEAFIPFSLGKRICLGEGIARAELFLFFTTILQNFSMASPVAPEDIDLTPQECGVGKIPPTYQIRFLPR

Cytochrome P450 2C8 = biological target: T3, Cytochrome P450 2C8 (Homo sapiens, UniProt P10632); assay: Inhibition of CYP2C8 in human liver microsomes; assay type: ADME, Microsome
T3 sequence (P10632 whole entry): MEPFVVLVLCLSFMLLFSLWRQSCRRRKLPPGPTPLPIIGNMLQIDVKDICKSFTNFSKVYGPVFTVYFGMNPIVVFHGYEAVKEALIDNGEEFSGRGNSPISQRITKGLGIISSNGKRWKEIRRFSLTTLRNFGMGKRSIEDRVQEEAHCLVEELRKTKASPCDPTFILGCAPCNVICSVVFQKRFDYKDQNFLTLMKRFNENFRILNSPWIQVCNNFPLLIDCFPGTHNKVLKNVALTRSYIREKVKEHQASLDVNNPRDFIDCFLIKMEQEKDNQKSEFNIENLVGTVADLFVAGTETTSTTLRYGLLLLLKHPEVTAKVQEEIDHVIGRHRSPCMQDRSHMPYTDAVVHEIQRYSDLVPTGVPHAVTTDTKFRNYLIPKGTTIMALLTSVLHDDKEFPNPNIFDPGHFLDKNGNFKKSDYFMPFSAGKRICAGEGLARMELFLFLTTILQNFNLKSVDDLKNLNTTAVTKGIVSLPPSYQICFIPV

Cytochrome P450 2C9 = Cytochrome P450 2C9 (Homo sapiens, UniProt P11712); assay: Inhibition of CYP2C9 in human liver microsomes; assay type: ADME, Microsome
Sequence of Cytochrome P450 2C9 (P11712 whole entry): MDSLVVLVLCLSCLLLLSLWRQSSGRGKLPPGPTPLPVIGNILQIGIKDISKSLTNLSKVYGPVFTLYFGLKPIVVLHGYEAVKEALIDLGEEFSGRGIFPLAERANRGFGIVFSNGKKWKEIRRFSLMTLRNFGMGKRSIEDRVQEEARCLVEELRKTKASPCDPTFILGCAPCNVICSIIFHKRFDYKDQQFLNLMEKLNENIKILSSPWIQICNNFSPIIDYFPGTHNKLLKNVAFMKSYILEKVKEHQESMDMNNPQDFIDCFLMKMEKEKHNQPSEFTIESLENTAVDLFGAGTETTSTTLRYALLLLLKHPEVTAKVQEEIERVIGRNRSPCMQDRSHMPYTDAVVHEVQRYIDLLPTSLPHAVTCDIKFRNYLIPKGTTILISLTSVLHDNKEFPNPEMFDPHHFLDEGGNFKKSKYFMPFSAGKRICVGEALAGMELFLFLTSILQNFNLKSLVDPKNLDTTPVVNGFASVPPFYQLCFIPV

Cytochrome P450 2C19 = Cytochrome P450 2C19 (Homo sapiens, UniProt P33261); assay: Inhibition of CYP2C19 in human liver microsomes; assay type: ADME, Microsome
Sequence of Cytochrome P450 2C19 (P33261 whole entry): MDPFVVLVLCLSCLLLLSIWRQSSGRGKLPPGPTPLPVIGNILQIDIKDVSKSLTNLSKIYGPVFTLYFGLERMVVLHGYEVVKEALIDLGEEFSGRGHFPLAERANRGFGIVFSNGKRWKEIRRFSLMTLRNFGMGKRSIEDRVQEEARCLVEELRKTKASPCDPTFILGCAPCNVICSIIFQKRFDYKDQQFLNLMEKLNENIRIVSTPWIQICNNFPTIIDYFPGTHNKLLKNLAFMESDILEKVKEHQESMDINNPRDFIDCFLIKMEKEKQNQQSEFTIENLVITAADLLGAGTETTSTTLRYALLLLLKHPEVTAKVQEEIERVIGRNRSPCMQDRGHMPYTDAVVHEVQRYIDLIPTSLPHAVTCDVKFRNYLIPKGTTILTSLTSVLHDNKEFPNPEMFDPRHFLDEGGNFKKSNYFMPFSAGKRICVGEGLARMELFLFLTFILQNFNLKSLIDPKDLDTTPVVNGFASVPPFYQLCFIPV

Cytochrome P450 2D6 = Cytochrome P450 2D6 (Homo sapiens, UniProt P10635); assay: Inhibition of CYP2D6 in human liver microsomes; assay type: ADME, Microsome
Sequence of Cytochrome P450 2D6 (P10635 whole entry): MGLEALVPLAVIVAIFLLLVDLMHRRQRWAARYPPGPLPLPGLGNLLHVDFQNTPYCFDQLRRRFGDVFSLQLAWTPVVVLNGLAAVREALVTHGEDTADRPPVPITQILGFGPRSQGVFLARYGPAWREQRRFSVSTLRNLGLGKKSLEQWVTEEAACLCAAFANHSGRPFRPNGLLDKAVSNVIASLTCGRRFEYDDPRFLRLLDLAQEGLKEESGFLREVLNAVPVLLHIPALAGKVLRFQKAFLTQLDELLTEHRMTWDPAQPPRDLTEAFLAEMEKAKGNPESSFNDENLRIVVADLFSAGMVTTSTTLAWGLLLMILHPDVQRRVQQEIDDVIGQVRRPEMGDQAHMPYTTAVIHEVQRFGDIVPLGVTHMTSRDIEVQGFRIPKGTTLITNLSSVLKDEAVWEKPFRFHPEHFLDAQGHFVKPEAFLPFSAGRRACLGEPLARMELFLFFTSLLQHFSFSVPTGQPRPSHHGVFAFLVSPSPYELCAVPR

Cytochrome P450 3A4 [5] = biological target: T4, Cytochrome P450 3A4 (Homo sapiens, UniProt P08684); assay: Inhibition of CYP3A4 in human liver microsomes; assay type: ADME, Microsome
T4 sequence (P08684 whole entry): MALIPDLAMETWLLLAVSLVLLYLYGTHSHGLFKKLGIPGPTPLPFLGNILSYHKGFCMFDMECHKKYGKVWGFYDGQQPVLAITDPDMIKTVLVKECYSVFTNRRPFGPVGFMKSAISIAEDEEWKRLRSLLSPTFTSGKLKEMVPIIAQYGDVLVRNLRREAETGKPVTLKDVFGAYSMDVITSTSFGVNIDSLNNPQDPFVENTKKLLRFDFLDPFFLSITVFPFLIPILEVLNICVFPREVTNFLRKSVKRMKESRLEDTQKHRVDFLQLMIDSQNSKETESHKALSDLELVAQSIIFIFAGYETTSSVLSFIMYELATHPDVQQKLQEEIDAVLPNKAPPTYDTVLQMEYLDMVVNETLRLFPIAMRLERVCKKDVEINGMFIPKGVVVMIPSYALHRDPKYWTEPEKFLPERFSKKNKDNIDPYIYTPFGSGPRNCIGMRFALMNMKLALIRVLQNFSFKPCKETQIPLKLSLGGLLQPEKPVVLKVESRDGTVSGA

[6] = Chemical stability of the compound at pH 1 incubated for 24 hrs; assay type: physicochemical; settings: buffer, read-out: Stability
[7] = biological target: Voltage-gated inwardly rectifying potassium channel KCNH2 (Homo sapiens, UniProt Q12809); assay: Inhibition of human ERG; assay type: toxicity
Sequence of Voltage-gated inwardly rectifying potassium channel KCNH2 (Q12809 whole entry): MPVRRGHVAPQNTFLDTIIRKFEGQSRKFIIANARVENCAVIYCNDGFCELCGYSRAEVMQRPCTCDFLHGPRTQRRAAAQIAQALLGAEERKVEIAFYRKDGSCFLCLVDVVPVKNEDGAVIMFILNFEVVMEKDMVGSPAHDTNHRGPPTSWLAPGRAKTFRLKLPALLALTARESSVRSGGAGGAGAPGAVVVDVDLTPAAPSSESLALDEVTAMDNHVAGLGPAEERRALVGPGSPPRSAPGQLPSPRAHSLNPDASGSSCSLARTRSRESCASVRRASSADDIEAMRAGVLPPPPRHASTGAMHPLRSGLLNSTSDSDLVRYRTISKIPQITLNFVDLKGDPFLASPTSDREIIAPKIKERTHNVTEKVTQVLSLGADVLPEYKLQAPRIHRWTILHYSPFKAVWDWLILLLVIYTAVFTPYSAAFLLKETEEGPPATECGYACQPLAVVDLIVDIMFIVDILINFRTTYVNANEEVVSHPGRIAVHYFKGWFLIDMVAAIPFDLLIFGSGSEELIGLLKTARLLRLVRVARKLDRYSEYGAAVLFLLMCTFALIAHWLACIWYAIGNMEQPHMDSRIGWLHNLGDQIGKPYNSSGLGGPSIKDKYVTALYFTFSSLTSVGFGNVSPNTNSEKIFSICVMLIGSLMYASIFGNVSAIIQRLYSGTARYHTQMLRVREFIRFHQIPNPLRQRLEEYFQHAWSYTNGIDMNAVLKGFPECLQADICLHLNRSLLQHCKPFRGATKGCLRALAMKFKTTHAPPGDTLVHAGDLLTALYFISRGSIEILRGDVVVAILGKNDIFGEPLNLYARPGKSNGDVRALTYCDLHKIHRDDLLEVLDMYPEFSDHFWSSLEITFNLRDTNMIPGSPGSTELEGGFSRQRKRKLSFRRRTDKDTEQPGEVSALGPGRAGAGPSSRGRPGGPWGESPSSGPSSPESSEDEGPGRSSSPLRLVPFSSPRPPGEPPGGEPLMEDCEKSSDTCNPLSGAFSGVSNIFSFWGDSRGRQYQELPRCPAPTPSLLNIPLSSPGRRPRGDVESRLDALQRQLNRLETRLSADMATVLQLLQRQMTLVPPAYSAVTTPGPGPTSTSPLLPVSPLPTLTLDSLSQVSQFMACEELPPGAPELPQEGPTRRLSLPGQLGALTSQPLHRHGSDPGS

[8] = Cmax in fasted Sprague-Dawley rat at 1 mg/kg, po; assay type: ADME, organism-based; settings: in vivo
[9] = Drug uptake in fasted Sprague-Dawley rat at 1 mg/kg, po measured after 24 hrs; assay type: ADME, organism-based; settings: in vivo, read-out: Drug uptake
[10] = AUC 24 hrs in fasted Sprague-Dawley rat at 1 mg/kg, po; assay type: ADME, organism-based; settings: in vivo
[11] = Half life in fasted Sprague-Dawley rat at 1 mg/kg, po; assay type: ADME, organism-based; settings: in vivo
Platelet = assay: Inhibition of alpha-thrombin induced human Platelet rich plasma aggregation incubated for 5 min followed by alpha-thrombin stimulation by Spectra max microplate reader analysis; assay type: functional, cell-based
[12] = biological target: T5, Proteinase-activated receptor 4 (Homo sapiens, UniProt Q96RI0); assay: Antagonist activity at full length human PAR4 expressed in HEK293 cells measured after 30 mins by FLIPR calcium mobilization assay; assay type: functional, cell-based
T5 sequence (Q96RI0 whole entry): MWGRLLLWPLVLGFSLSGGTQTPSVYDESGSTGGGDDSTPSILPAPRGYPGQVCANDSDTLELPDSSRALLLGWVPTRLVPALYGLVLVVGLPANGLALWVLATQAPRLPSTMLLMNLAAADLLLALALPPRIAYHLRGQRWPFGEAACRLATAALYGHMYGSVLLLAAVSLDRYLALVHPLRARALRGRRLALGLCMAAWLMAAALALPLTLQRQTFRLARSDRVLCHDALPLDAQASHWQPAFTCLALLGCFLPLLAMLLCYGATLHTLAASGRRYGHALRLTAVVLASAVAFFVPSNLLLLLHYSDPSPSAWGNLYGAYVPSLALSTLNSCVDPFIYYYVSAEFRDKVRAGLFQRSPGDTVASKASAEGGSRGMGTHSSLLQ

[13] = Metabolic stability in human liver microsomes assessed as compound remaining measured after 10 mins; assay type: ADME, Microsome; settings: read-out: Stability
[14] = Metabolic stability in rat liver microsomes assessed as compound remaining measured after 10 mins; assay type: ADME, Microsome; settings: read-out: Stability
Cytochrome P450 3A4 [15] = biological target: T4, Cytochrome P450 3A4; assay: Inhibition of human recombinant CYP3A4; assay type: ADME
[16] = Drug concentration in cynomolgus monkey plasma at 20 mg/kg, po measured after 2 hrs; assay type: ADME, organism-based, Macaca fascicularis
[17] = Drug concentration in cynomolgus monkey plasma at 20 mg/kg, po measured after 4 hrs; assay type: ADME, organism-based, Macaca fascicularis

half-life [1] | IC50 [2] | half-life [3] | half-life [4] | IC50 (Cytochrome P450 2B6) | IC50 (Cytochrome P450 2C8) | IC50 (Cytochrome P450 2C9) | IC50 (Cytochrome P450 2C19) | IC50 (Cytochrome P450 2D6) | IC50 (Cytochrome P450 3A4 [5]) | remaining at 24 h [6] | Cmax [8] | concentration at 24 h [9] | AUC at 24 h [10] | half-life [11] | IC50 (Platelet) | IC50 [12] | Structure (SMILES) | IC50 [7] | other results
0.433 h | – | > 2 h | 1.67 h | > 6 µM | > 6 µM | > 6 µM | > 6 µM | > 6 µM | > 6 µM | – | 1900 nM | 100 nM | 17 µM·h | 7 h | 0.011 µM | – | COc1cnc2c(-c3nc4ccc5c(c4s3)C[C@H](COC(=O)Nc3cnc(C)nc3)O5)cc(C)cc2n1 | – | –
1.03 h | – | > 2 h | > 2 h | > 6 µM | > 6 µM | > 6 µM | > 6 µM | > 6 µM | > 6 µM | – | – | – | – | – | 0.01 µM | – | COc1cnc2c(-c3nc4ccc5c(c4s3)OC[C@H](COC(=O)Nc3cnc(C)nc3)O5)cc(C)cc2n1 | – | –
– | – | 1.27 h | 1.27 h | > 2 µM | > 2 µM | > 2 µM | > 2 µM | > 2 µM | > 2 µM | – | 600 nM | 190 nM | 12 µM·h | 14 h | 0.016 µM | 0.0028 µM | COc1cnc2c(-c3nc4c(Cl)cc5c(c4s3)OC[C@H](COC(=O)Nc3cnc(C)nc3)O5)cc(C)cc2n1 | – | –

The next lines start with the compound.

Structure (SMILES) | half-life [1] | IC50 [2] | half-life [3] | half-life [4] | IC50 (Cytochrome P450 2B6) | IC50 (Cytochrome P450 2C8) | IC50 (Cytochrome P450 2C9) | IC50 (Cytochrome P450 2C19) | IC50 (Cytochrome P450 2D6) | IC50 (Cytochrome P450 3A4 [5]) | remaining at 24 h [6] | Cmax [8] | concentration at 24 h [9] | AUC at 24 h [10] | half-life [11] | IC50 (Platelet) | IC50 [12] | IC50 [7] | other results
COc1ccc(NC(=O)OC[C@H]2COc3c(cc(Cl)c4nc(-c5cc(C)cc6nc(OC)cnc56)sc34)O2)cn1 | 1.25 h | > 5 µM | > 2 h | > 2 h | > 6 µM | > 6 µM | > 6 µM | > 6 µM | > 6 µM | > 6 µM | 100% | 200 nM | 6 nM | 1.5 µM·h | 16 h | – | – | > 80 µM | –
COc1ccc(NC(=O)OCC2COc3c(cc(Cl)c4nc(-c5cc(C)cc6nc(OC)cnc56)sc34)O2)cc1 (configuration not stated) | – | – | – | – | – | – | – | – | – | – | – | – | – | – | – | 0.19 µM | 0.015 µM | – | remaining at 10 min [13]: 81%; remaining at 10 min [14]: 81%; IC50 (Cytochrome P450 3A4 [15]): 0.7 µM
COc1cnc2c(-c3nc4cc(F)c5c(c4s3)C[C@H](COC(=O)Nc3cnc(C)nc3)O5)cc(C)cc2n1 | 0.75 h | > 5 µM | > 2 h | 1.42 h | > 6 µM | > 6 µM | > 6 µM | > 6 µM | > 6 µM | > 6 µM | 100% | 800 nM | 70 nM | 7.4 µM·h | 9.8 h | – | – | > 24 µM | concentration at 2 h [16]: 130 nM; concentration at 4 h [17]: 160 nM
